Results reported in US8933233B2, “1,3,4-oxadiazole and 1,3,4-thiadiazole β-lactamase inhibitors” (priority 2012, dated 2015).
Where a name gives a salt, the structure may show the parent alone.

Legend:
[1] = tested on: bacterial strains that express the class D cephalosporinase OXA-15; test: Synergy MIC / standard BLI potentiation MIC assay, strains expressing OXA-15; assay type: cell-based, E. coli; settings: in presence of a β-lactam; comparator Avibactam (CCC)
Protocol: (§1) Unless otherwise indicated, the activity of the BLI compounds can be described by the MIC value obtained from a Synergy MIC assay or a BLI potentiation assay (e.g as described herein), both of which are run in the presence of a β-lactam.
(§2) The experimental protocol was performed according to Clinical and Laboratory Standards Institute (CLSI) guidelines with modifications as described below (CLSI guidelines can be derived from the CLSI document M07-A9 published in January 2012: “Methods for Dilution Antimicrobial Susceptibility Tests for Bacteria That Grow Aerobically; Approved Standard-Ninth Edition”).
(§3) To prepare for MIC testing, frozen glycerol stocks of clinical isolates (Klebsiella pneumoniae, Eschericia coli, Enterobacter spp, Citrobacter spp, or Pseudomonas aeruginosa) were used to streak for isolated colonies on rich, non-selective, tryptic soy agar containing 5% sheep's blood (TSAB). Frozen glycerol stocks of laboratory engineered, isogenic E. coli strains, which contain cloned β-lactamase expressing plasmids were used to streak for isolated colonies on rich, selective LB agar supplemented with 25 μg/mL tetracycline to maintain the plasmid. All strains were incubated at 37° C. for 18-24 hrs.
(§4) On the day of testing, primary cultures were started by scraping off 5-10 colonies from the TSAB plates containing clinical strains or the tetracycline supplemented LB plates containing engineered strains. The clinical strain material was suspended in ˜5 mL of cation adjusted Mueller Hinton Broth (CAMHB) in 14 mL culture tubes. The engineered strain material was suspended in CAMHB (supplemented with 25 μg/mL tetracycline) in 14 mL culture tubes. All strains were incubated at 37° C. with aeration (200 rpm) for ˜2 hrs until the optical density at 600 nm (OD600) was ≧0.1.
(§5) The two compound components of the assay were each diluted in CAMHB and added to the 96-well broth microdilution assay plates. 50 μL of the β-lactam was added to each well of the assay plate in 2-fold dilutions with final concentrations ranging from 128 to 0.13 μg/mL. 25 μL of the BLI compound was added to all wells in the broth microdilution plates at a final concentration of 4 μg/mL. Inoculum cultures were prepared by standardizing the primary cultures to OD600=0.1 and then adding 20 μL of the adjusted primary culture per 1 mL CAMHB for clinical strains or CAMHB (supplemented with tetracycline at 100 μg/mL) for engineered strains, so that the final inoculum density was ˜10^5 colony forming units per milliliter. Diluted inoculum cultures were used to inoculate 25 μL per well in 96-well broth microdilution assay plates. The final volume of each well was 100 μL and contained a β-lactam at different concentrations, a BLIcompound at 4 μg/mL concentration, the bacterial culture at an OD600 of approximately 0.001 and when necessary tetracycline at 25 μg/mL.
(§6) Plates were incubated for 18-20 hours at 37° C. with aeration (200 rpm). Following incubation, growth was confirmed visually placing plates over a viewing apparatus (stand with a mirror underneath) and then OD600 was measured using a SpectraMax 340PC384 plate reader (Molecular Devices, Sunnyvale, Calif.). Growth was defined as turbidity that could be detected with the naked eye or achieving minimum OD600 of 0.1. MIC values were defined as the lowest concentration producing no visible turbidity.
(§7) The synergy MIC (sMIC) assay determines the concentration of the BLI required to potentiate the activity of a fixed concentration of a β-lactam antibiotic against β-lactamase producing bacterial strains. The experimental protocol was performed according to Clinical and Laboratory Standards Institute (CLSI) guidelines with modifications as described below (CLSI guidelines can be derived from the CLSI document M07-A9 published in January 2012: “Methods for Dilution Antimicrobial Susceptibility Tests for Bacteria That Grow Aerobically; Approved Standard-Ninth Edition”). […]

[2] = tested on: bacterial strains that express KPC β-lactamases; test: Synergy MIC / standard BLI potentiation MIC assay, strains expressing KPC β-lactamases; assay type: cell-based, isogenic E. coli and clinical isolates; settings: more active for at least one KPC strain and/or better spectrum; comparator Avibactam
Protocol: as §1, §2, §3, §4, §5, §6, §7

Row | SMILES | activity against bacterial strains that express OXA-15, compared with Avibactam [1] | activity and/or spectrum of activity against bacterial strains that express KPC β-lactamases, compared with Avibactam [2]
1 | NCCCc1nnc([C@@H]2CC[C@@H]3CN2C(=O)N3OS(=O)(=O)O)o1 [Compound 720, (2S,5R)-2-(5-(3-aminopropyl)-1,3,4-oxadiazol-2-yl)-7-oxo-1,6-diazabicyclo[3.2.1]octan-6-yl hydrogen sulfate] | more active than Avibactam | more active than Avibactam
2 | N[C@H]1C[C@H](CCc2nnc([C@@H]3CC[C@@H]4CN3C(=O)N4OS(=O)(=O)O)o2)C1 [Compound 753, (2S,5R)-2-(5-(2-((1r,3R)-3-aminocyclobutyl)ethyl)-1,3,4-oxadiazol-2-yl)-7-oxo-1,6-diazabicyclo[3.2.1]octan-6-yl hydrogen sulfate] | more active than Avibactam | more active than Avibactam
3 | O=C1N2C[C@@H](CC[C@H]2c2nnc(CCNCCO)o2)N1OS(=O)(=O)O [Compound 736, (2S,5R)-2-(5-(2-((2-hydroxyethyl)amino)ethyl)-1,3,4-oxadiazol-2-yl)-7-oxo-1,6-diazabicyclo[3.2.1]octan-6-yl hydrogen sulfate] | more active than Avibactam | more active than Avibactam
4 | N=C(N)NC1CC(Cc2nnc([C@@H]3CC[C@@H]4CN3C(=O)N4OS(=O)(=O)O)o2)C1 (stereo partly drawn) [Compound 752, (2S,5R)-2-(5-((3-guanidinocyclobutyl)methyl)-1,3,4-oxadiazol-2-yl)-7-oxo-1,6-diazabicyclo[3.2.1]octan-6-yl hydrogen sulfate] | more active than Avibactam | more active than Avibactam
5 | N=C(N)Nc1nnc([C@@H]2CC[C@@H]3CN2C(=O)N3OS(=O)(=O)O)o1 [Compound 738, (2S,5R)-2-(5-guanidino-1,3,4-oxadiazol-2-yl)-7-oxo-1,6-diazabicyclo[3.2.1]octan-6-yl hydrogen sulfate] | more active than Avibactam | more active than Avibactam
6 | O=C1N2C[C@@H](CC[C@H]2c2nnc(CCC3CNC3)o2)N1OS(=O)(=O)O [Compound 742, (2S,5R)-2-(5-(2-(azetidin-3-yl)ethyl)-1,3,4-oxadiazol-2-yl)-7-oxo-1,6-diazabicyclo[3.2.1]octan-6-yl hydrogen sulfate] | more active than Avibactam | more active than Avibactam
7 | O=C1N2C[C@@H](CC[C@H]2c2nnc(CCN3CCNCC3)o2)N1OS(=O)(=O)O [Compound 776, (2S,5R)-7-oxo-2-(5-(2-(piperazin-1-yl)ethyl)-1,3,4-oxadiazol-2-yl)-1,6-diazabicyclo[3.2.1]octan-6-yl hydrogen sulfate] | more active than Avibactam | more active than Avibactam
8 | NCCCCc1nnc([C@@H]2CC[C@@H]3CN2C(=O)N3OS(=O)(=O)O)o1 [Compound 735, (2S,5R)-2-(5-(4-aminobutyl)-1,3,4-oxadiazol-2-yl)-7-oxo-1,6-diazabicyclo[3.2.1]octan-6-yl hydrogen sulfate] | more active than Avibactam | more active than Avibactam
9 | N=C(N)N1CC(c2nnc([C@@H]3CC[C@@H]4CN3C(=O)N4OS(=O)(=O)O)o2)C1 [Compound 709, (2S,5R)-2-(5-(1-carbamimidoylazetidin-3-yl)-1,3,4-oxadiazol-2-yl)-7-oxo-1,6-diazabicyclo[3.2.1]octan-6-yl hydrogen sulfate] | more active than Avibactam | more active than Avibactam
10 | O=C1N2C[C@@H](CC[C@H]2c2nnc([C@H]3[C@@H]4CNC[C@@H]43)o2)N1OS(=O)(=O)O [Compound 740, (2S,5R)-2-(5-(3-azabicyclo[3.1.0]hexan-6-yl)-1,3,4-oxadiazol-2-yl)-7-oxo-1,6-diazabicyclo[3.2.1]octan-6-yl hydrogen sulfate] | more active than Avibactam | more active than Avibactam
11 | NC1CC(NCc2nnc([C@@H]3CC[C@@H]4CN3C(=O)N4OS(=O)(=O)O)o2)C1 (stereo partly drawn) [Compound 755, (2S,5R)-2-(5-(((3-aminocyclobutyl)amino)methyl)-1,3,4-oxadiazol-2-yl)-7-oxo-1,6-diazabicyclo[3.2.1]octan-6-yl hydrogen sulfate] | more active than Avibactam | more active than Avibactam
12 | O=C1N2C[C@@H](CC[C@H]2c2nnc(CN3CCNCC3)o2)N1OS(=O)(=O)O [Compound 777, (2S,5R)-7-oxo-2-(5-(piperazin-1-ylmethyl)-1,3,4-oxadiazol-2-yl)-1,6-diazabicyclo[3.2.1]octan-6-yl hydrogen sulfate] | more active than Avibactam | more active than Avibactam
13 | N=C(N)NCCc1nnc([C@@H]2CC[C@@H]3CN2C(=O)N3OS(=O)(=O)O)o1 [Compound 705, (2S,5R)-2-(5-(2-guanidinoethyl)-1,3,4-oxadiazol-2-yl)-7-oxo-1,6-diazabicyclo[3.2.1]octan-6-yl hydrogen sulfate] | more active than Avibactam | more active than Avibactam
14 | N=C1NCC(c2nnc([C@@H]3CC[C@@H]4CN3C(=O)N4OS(=O)(=O)O)o2)N1 (stereo partly drawn) [Compound 767, (2S,5R)-2-(5-(2-iminoimidazolidin-4-yl)-1,3,4-oxadiazol-2-yl)-7-oxo-1,6-diazabicyclo[3.2.1]octan-6-yl hydrogen sulfate] | more active than Avibactam | more active than Avibactam
15 | N[C@H]1C[C@@H](c2nnc([C@@H]3CC[C@@H]4CN3C(=O)N4OS(=O)(=O)O)s2)C1 [Compound 795, (2S,5R)-2-(5-((1s,3R)-3-aminocyclobutyl)-1,3,4-thiadiazol-2-yl)-7-oxo-1,6-diazabicyclo[3.2.1]octan-6-yl hydrogen sulfate] | more active than Avibactam | more active than Avibactam
16 | N[C@H]1C[C@@H](CCc2nnc([C@@H]3CC[C@@H]4CN3C(=O)N4OS(=O)(=O)O)o2)C1 [Compound 754, (2S,5R)-2-(5-(2-((1s,3S)-3-aminocyclobutyl)ethyl)-1,3,4-oxadiazol-2-yl)-7-oxo-1,6-diazabicyclo[3.2.1]octan-6-yl hydrogen sulfate] | more active than Avibactam | more active than Avibactam
